In ChEMBL document CHEMBL4024761, “Protac-Induced Protein Degradation in Drug Discovery: Breaking the Rules or Just Making New Ones?” (J Med Chem, 2018):

How the values were obtained:
[1] = target: von Hippel-Lindau disease tumor suppressor (Homo sapiens, UniProt P40337); test: Binding affinity to VHL (unknown origin) assessed as reduction of HIF1alpha derived peptide binding to VHL complex by competitive binding fluorescence polarization assay
[2] = target: von Hippel-Lindau disease tumor suppressor/Receptor-interacting serine/threonine-protein kinase 2 (Homo sapiens, UniProt O43353+P40337); test: Proteolysis targeting chimera activity in human THP1 cells assessed as induction of VHL-mediated delivery of RIPK2 for protein degradation by proteasome by measuring drug level causing 50% cellular protein depletion incubated for 16 hrs by Western blotting method; type: cell-based
Chain of von Hippel-Lindau disease tumor suppressor/Receptor-interacting serine/threonine-protein kinase 2 (O43353 whole entry): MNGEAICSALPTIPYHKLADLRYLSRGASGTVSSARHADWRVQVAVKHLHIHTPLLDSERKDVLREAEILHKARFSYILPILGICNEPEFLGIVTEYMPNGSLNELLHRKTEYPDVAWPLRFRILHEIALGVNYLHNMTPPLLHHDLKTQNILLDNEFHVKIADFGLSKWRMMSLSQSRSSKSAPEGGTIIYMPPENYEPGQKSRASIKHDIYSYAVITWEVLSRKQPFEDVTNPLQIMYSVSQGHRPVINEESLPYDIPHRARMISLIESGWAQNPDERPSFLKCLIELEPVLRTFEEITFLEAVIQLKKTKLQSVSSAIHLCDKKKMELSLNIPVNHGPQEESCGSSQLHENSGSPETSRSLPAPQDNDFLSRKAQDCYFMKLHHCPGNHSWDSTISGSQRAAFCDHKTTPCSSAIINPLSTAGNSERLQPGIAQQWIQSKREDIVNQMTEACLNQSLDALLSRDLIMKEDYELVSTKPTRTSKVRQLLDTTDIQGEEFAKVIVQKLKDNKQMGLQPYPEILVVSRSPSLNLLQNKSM
Chain of von Hippel-Lindau disease tumor suppressor/Receptor-interacting serine/threonine-protein kinase 2 (P40337 whole entry): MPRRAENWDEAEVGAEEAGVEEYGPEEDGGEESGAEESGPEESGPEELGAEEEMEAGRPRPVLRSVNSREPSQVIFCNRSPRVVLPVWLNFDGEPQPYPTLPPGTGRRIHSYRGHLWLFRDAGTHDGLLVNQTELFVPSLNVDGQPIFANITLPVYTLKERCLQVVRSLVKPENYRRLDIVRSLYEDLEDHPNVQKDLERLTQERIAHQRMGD

Chain of von Hippel-Lindau disease tumor suppressor (P40337 whole entry): as above

- Kd [1]: 500 nM
- DC50 [2]: 1 nM
Compound: Cc1ncsc1-c1ccc(CNC(=O)[C@@H]2C[C@@H](O)CN2C(=O)[C@@H](NC(=O)COCCOCCOCCOCCOc2cc3nccc(Nc4ccc5scnc5c4)c3cc2S(=O)(=O)C(C)(C)C)C(C)(C)C)cc1
